Patent US11186594B2, “Podophyllotoxin derivatives and their use” (California Pacific Medical Center, priority 2015, dated 2021)

Legend:
[1] = Toxicity study (MTD) in normal mice; assay type: in vivo, C3H female normal mice; conditions: single i.p. injection, mice checked daily for 40 days (MTD40)
Procedure: In the toxicity studies, 2 C3H female normal mice were dosed with compounds N1-4 (N1, N2, N3, and N4) at low and moderate doses of 40 and 100 mg/kg. Since no severe and irreversible toxicity occurred at these doses, a new pair of animals was initiated at 120 mg/kg which was 1.2 times higher than 100 mg/kg. Sequential dosages (ie. 2 mice for each drug dose) were increased by a factor of 1.2-1.5 until irreversible toxicity was observed (animal became emaciated; animal underwent rapid weight loss (cachexia) (20%) within several (2-4) days)(euthanasia was required) occurred. Then another pair of animals was initiated at the highest nontoxic dosage, and successive dosages were increased by a factor of 1.15. […] Six mice were dosed at each dosage. If no irreversible toxicity occurred at the lower dosage and at least one with irreversible toxicity at the higher dose, then the lower dose was considered to be the MTD. HCL salts of N1-4 were formulated in a solution of ethanol:Cremophor EL:0.2M NaAc:saline (5:5:10:80) with a final pH of 5.0-5.5. N1-4 bases were formulated in a solution of ethanol: Cremophor EL:saline (5:5:90). All compounds were administered to C3H female normal mice by a single i.p. injection at a volume of 0.5 ml/20 g mouse. Drug toxicity was evaluated on mice checked daily for 40 days. The toxicity parameters reported were the MTD40. […] At the end of experiment, all mice were euthanized.

Rat MTD study = assay type: in vivo, Sprague-Dawley rats
Procedure: In the rat MTD study, Sprague-Dawley rats were dosed with 801 HCl at a concentration of 6 mg/ml via intravenous infusion or slow intravenous injection. The MTD of 801 in normal rats was 120 mg/kg/day. In the 7-day repeating dose study, the rats were administered with […] via BID slow IV injection for 7 days.

[2] = Toxicity studies (MTD) in Cynomolgus monkeys; assay type: in vivo
[3] = system: HCT116 human colon cancer xenograft; assay: Subcutaneous HCT116 human colon cancer xenograft model; assay type: in vivo, Mus Musculus (BALB/c nude)
Procedure: Each mouse was inoculated subcutaneously with 5×10^6 HCT116 tumor cells in 0.1 ml PBS for tumor development. Treatments were started when the tumor volume reached 100 mm^3. […] Body weight and tumor volume were measured twice a week.

[4] = system: COLO205 human colon cancer xenograft; assay: Subcutaneous COLO205 human colon cancer xenograft model; assay type: in vivo, Mus Musculus (BALB/c nude); conditions: 125 mg/kg i.p. q3d×3, day 29
Procedure: Each mouse was inoculated subcutaneously with 5×10^6 COLO205 tumor cells in 0.1 ml PBS for tumor development. Treatments were started when the tumor volume reached 120 mm^3. […] Body weight and tumor volume were measured twice a week.

[5] = system: K562 human chronic myeloid leukemia xenograft; assay: Subcutaneous K562 human chronic myeloid leukemia xenograft model; conditions: 300 mg/kg ip Days 8, 11, 14
[6] = system: HCT116 Human Colon Cancer Cells; assay: Colony formation assay, HCT116; assay type: cell-based; conditions: 50% inhibition of colony formation; 72 hours with drug; colonies counted after 7 days
Procedure: (§1) Cancer cells were plated in 60 mm Petri dishes containing 2.7 ml of medium (modified McCoy's 5a medium containing 10% fetal bovine serum and 100 units/ml penicillin and 100 ug/ml streptomycin). The cells were incubated in a CO2 incubator at 37 degree C. for 5 hours for attachment to the bottom of Petri dishes. Drugs were made up fresh in medium at ten times the final concentration, and then 0.3 ml of this stock solution was added to the 2.7 ml of medium in the dish. The cells were then incubated with drugs for 72 hours at 37 degree C. At the end of incubation the drug-containing media were decanted, the dishes were rinsed with 4 ml of Hank's Balance Salt Solution (HBSS), 5 ml of fresh medium was added, and the dishes were returned to the incubator for colony formation. The cell colonies were counted using colony counter after incubation for 7 days (HCT116 cell line), 14 days (VM46 cell line) and 15 days (H23 cell line). Cell survival (%) was calculated from 3 repeated dishes for each drug concentration and the mean values of IC50 (the drug concentration producing 50% inhibition of colony formation) were determined for each tested compound.

[7] = system: VM46 Human Colon Cancer Cells Overexpressing Multi-drug Resistant Gene 1; assay: Colony formation assay, VM46; assay type: cell-based; conditions: 50% inhibition of colony formation; 72 hours with drug; colonies counted after 14 days
Procedure: as §1

[8] = system: H23 Human Non-small Cell Lung Cancer Cells; assay: Colony formation assay, H23; assay type: cell-based; conditions: 50% inhibition of colony formation; 72 hours with drug; colonies counted after 15 days
Procedure: as §1

For `CC[C@@]1(OC(=O)COc2ccc(C(=O)O[C@H]3c4cc5c(cc4[C@@H](c4cc(OC)c(OC)c(OC)c4)[C@H]4C(=O)OC[C@@H]43)OCO5)cc2)C(=O)OCc2c1cc1n(c2=O)Cc2cc3cc(OC(=O)N4CCC(N5CCCCC5)CC4)ccc3nc2-1.Cl` [Compound 801-HCl], the “MTD Values” [1] was 300 mg/kg, the MTD (Rat MTD study; 6 mg/ml via intravenous infusion or slow intravenous injection, normal rats) was 120 mg/kg/day and the “MTD for repeating dosing” value ([2]; 5-day repeat dose, intravenous infusion) was 30 mg/kg/day. It also gave an MTD ([2]; intravenous infusion twice daily with a 5-hour interval) of 60 mg/kg/day, a TGI ([3]; 125 mg/kg i.p. q3d×3, day 29) of 93% and a TGI [4] of 70%. For the same molecule, the “TGI (Day 25)” value [5] was 98%, the “Mean Tumor Volume” value ([5]; Day 8 after tumor inoculation) was 159 ± 6 mm^3 and the “Mean Tumor Volume” value ([5]; Day 11) was 221 ± 27 mm^3. The “Mean Tumor Volume” value ([5]; Day 14) was 164 ± 6 mm^3, the “Mean Tumor Volume” value ([5]; Day 18) was 47 ± 7 mm^3 and the “Mean Tumor Volume” value ([5]; Day 21) was 39 ± 6 mm^3. The “Mean Tumor Volume” value ([5]; Day 25) was 74 ± 12 mm^3, the “Mean Tumor Volume” value ([5]; Day 25, listed as 801-HCI) was 74 ± 2 mm^3 and the “Mean Tumor Volume” value ([5]; Day 28) was 95 ± 19 mm^3. The “CR ratio (ratio of complete regression)” value ([5]; complete remission by Day 21) was 3/8 and the “maximum BW loss” value ([5]; next day after the 2nd dosing) was 7.7%.
With `CCc1c2c(nc3ccc(O)c(CN(C)C)c13)-c1cc3c(c(=O)n1C2)COC(=O)C3(CC)OC(=O)COc1ccc(C(=O)OC2c3cc4c(cc3C(c3cc(OC)c(OC)c(OC)c3)C3C(=O)OCC23)OCO4)cc1` (stereo not drawn) [Compound N4] the “MTD Values” [1] was 250 mg/kg, the IC50 [6] was 6.6 nM and the IC50 [7] was 5 nM. The IC50 [8] was 12.9 nM.
With `CCc1c2c(nc3ccc(OC(=O)N4CCC(N5CCCCC5)CC4)cc13)-c1cc3c(c(=O)n1C2)COC(=O)[C@]3(O)CC` [Irinotecan, reference compound] the body weight loss ([3]; during the treatment period, doses of the study groups) was 8%.
In the case of `CCC1(OC(=O)COc2ccc(C(=O)OC3c4cc5c(cc4C(c4cc(OC)c(OC)c(OC)c4)C4C(=O)OCC34)OCO5)cc2)C(=O)OCc2c1cc1n(c2=O)Cc2cc3c(CN(C)C)c(O)ccc3nc2-1.Cl` (stereo not drawn) [N1 HCL Salt], the “MTD Values” [1] is reported as 120 mg/kg.
With `CC[C@@]1(OC(=O)COc2ccc(C(=O)O[C@H]3c4cc5c(cc4[C@@H](c4cc(OC)c(OC)c(OC)c4)[C@H]4C(=O)OC[C@@H]43)OCO5)cc2)C(=O)OCc2c1cc1n(c2=O)Cc2cc3cc(OC(=O)N4CCC(N5CCCCC5)CC4)ccc3nc2-1` [N2 (801)] the “MTD Values” [1] was 300 mg/kg, the IC50 [6] was greater than 500 nM and the IC50 [7] was roughly 520 nM. For the same molecule, the IC50 [8] was 462 nM and the “MTD for repeating dosing” value (Rat MTD study; 7-day repeating dose, BID slow IV injection) was 60 mg/kg/day.
In the case of `CCc1c2c(nc3ccc(OC(=O)N4CCC(N5CCCCC5)CC4)cc13)-c1cc3c(c(=O)n1C2)COC(=O)C3(CC)OC(=O)COc1ccc(C(=O)OC2c3cc4c(cc3C(c3cc(OC)c(OC)c(OC)c3)C3C(=O)OCC23)OCO4)cc1.Cl` (stereo not drawn) [N3 HCL Salt], the “MTD Values” [1] is reported as 144 mg/kg.
In the case of `CCc1c2c(nc3ccc(O)c(CN(C)C)c13)-c1cc3c(c(=O)n1C2)COC(=O)C3(CC)OC(=O)COc1ccc(C(=O)OC2c3cc4c(cc3C(c3cc(OC)c(OC)c(OC)c3)C3C(=O)OCC23)OCO4)cc1.Cl` (stereo not drawn) [N4 HCL Salt], the “MTD Values” [1] is reported as 180 mg/kg.
